According to patent US20130281465A1, “PYRAZOLE DERIVATIVE” (TAISHO PHARMACEUTICAL CO., LTD., priority 2010, published 2013):
pIC50: −log10 of the molar value.

Columns and labels:
[1] = molecular target: T1, orexin type 2 receptor (hOX2R) (Homo sapiens, UniProt O43614); assay: Orexin receptor antagonistic activity, intracellular Ca2+ fluorescence (FDSS) in CHO cells expressing hOX2R; assay type: cell-based; conditions: CHO cells forced to express hOX2R; orexin-A analogue peptide ligand 3 nM; Fluo-4 maximum fluorescence; read-out: IC50 value OX2R
T1 construct: expressed in transfected cells; host or cells: Chinese hamster ovary (CHO) cells
T1 sequence (O43614 1-444): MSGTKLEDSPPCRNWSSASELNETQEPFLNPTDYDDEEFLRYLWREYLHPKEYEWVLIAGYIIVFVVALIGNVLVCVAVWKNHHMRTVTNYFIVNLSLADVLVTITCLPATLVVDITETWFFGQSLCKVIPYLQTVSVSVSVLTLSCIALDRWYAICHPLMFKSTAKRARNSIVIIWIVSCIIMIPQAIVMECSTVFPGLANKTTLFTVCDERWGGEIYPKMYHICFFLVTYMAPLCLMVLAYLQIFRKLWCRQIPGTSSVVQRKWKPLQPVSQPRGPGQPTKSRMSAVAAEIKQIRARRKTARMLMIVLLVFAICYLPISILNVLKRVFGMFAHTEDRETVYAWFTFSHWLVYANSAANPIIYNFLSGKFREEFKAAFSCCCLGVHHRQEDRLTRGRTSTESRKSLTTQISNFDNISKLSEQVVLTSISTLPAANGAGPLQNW
Method: (§1) The antagonistic activity of each test compound against human orexin type 1 receptor (hOX1R) and orexin type 2 receptor (hOX2R) was performed as described in the literature with a modification (Toshikatsu Okumura et al., Biochemical and Biophysical Research Communications 280, 976-981, 2001). Chinese hamster ovary (CHO) cells forced to express hOX1R or hOX2R were seeded at 20,000 cells/well on a 96 well Black clear bottom plates (Nunc) and cultured for 16 hours under conditions of 37° C. and 5% CO2 using a Ham's F-12 medium containing 0.1 mM MEM non-essential amino acids, 0.5 mg/ml G418, and 10% fetal bovine serum (all from Invitrogen Corp.). After removal of the medium, 100 μL of the assay buffer (25 mM HEPES (Dojindo Laboratories), Hanks' balanced salt solution (Invitrogen Corp.), 0.1% bovine serum albumin, 2.5 mM probenecid, 200 μg/ml Amaranth (all from Sigma-Aldrich Corp.), pH 7.4) containing 0.5 μM Fluo-4AM ester (Dojindo Laboratories) was added thereto, and the cells were incubated for 60 minutes under conditions of 37° C. and 5% CO2. After removal of the buffer solution for assay containing Fluo-4AM ester, the test compound was dissolved at a concentration of 10 mM in dimethyl sulfoxide and diluted with the assay buffer, and 150 μL of the diluted solution was then added to each wells, which were then incubated for 30 minutes.
(§2) A peptide (Pyr-[…]11e-Leu-Thr-Leu-NH2; Peptide Institute, Inc.) substituted 2 amino acids of human orexin-A was diluted with the assay buffer to 300 pM (final concentration for hOX1R) or 3 nM (final concentration for hOX2R). 50 μL of this ligand solution was added thereto to start reaction. During the reaction, the fluorescence value of each well was measured every one second for 3 minutes using Functional Drug Screening System (FDSS; manufactured by Hamamatsu Photonics K.K.), and antagonistic activity was determined with the maximum fluorescence value as an index for intracellular Ca^2+ concentration. The antagonistic activity of the test compound was calculated with the fluorescence value of a well supplemented with only a dilution buffer solution as 100% and the fluorescence value of a well supplemented with a buffer solution containing neither the ligand nor the compound as 0%, and determined in terms of 50% inhibitory concentration (IC50 value) from fluorescence values derived from the test compound added at varying concentrations.

[2] = molecular target: T2, human orexin type 1 receptor (hOX1R) (Homo sapiens, UniProt O43613); assay: Orexin receptor antagonistic activity, intracellular Ca2+ fluorescence (FDSS) in CHO cells expressing hOX1R; assay type: cell-based; conditions: CHO cells forced to express hOX1R; orexin-A analogue peptide ligand 300 pM; Fluo-4 maximum fluorescence; read-out: IC50 value OX1R
T2 construct: expressed in transfected cells; host or cells: Chinese hamster ovary (CHO) cells
T2 sequence (O43613 1-425): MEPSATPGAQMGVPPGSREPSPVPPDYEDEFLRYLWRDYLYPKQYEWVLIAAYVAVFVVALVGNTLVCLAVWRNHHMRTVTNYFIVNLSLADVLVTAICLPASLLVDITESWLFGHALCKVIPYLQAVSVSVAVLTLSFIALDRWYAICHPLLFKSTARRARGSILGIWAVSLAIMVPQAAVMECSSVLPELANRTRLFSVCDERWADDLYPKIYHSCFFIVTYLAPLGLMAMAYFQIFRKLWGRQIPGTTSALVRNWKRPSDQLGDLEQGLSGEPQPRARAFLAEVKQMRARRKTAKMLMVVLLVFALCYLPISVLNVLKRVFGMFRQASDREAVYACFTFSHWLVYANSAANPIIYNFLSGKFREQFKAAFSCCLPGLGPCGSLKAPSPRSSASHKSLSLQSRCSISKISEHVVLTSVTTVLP
Method: as §1, §2

SMILES	pIC50 [1]	pIC50 [2]
CCN(CCn1cc(-c2ccccn2)cn1)C(=O)c1cc(C)ccc1-n1nccn1 [Example 11, N-ethyl-5-methyl-N-{2-[4-(pyridin-2-yl)-1H-pyrazol-1-yl]ethyl}-2-(2H-1,2,3-triazol-2-yl)benzamide]	7.76	7.98
CCN(CCn1ccc(-c2ccc(C(F)(F)F)cn2)n1)C(=O)c1cc(C)ccc1-n1nccn1 [Example 51, N-ethyl-5-methyl-2-(2H-1,2,3-triazol-2-yl)-N-(2-{3-[5-(trifluoromethyl)pyridin-2-yl]-1H-pyrazol-1-yl}ethyl)benzamide]	6.40	7.29
CCN(CCn1ccc(-c2ccc(F)cn2)n1)C(=O)c1cc(Cl)ccc1-n1nccn1 [Example 33, 5-Chloro-N-ethyl-N-{2-[3-(5-fluoropyridin-2-yl)-1H-pyrazol-1-yl]ethyl}-2-(2H-1,2,3-triazol-2-yl)benzamide]	8.66	8.19
CCN(CCn1ccc(-c2cccc(C(F)(F)F)n2)n1)C(=O)c1cc(F)ccc1-c1ncccn1 [Example 57, N-ethyl-5-fluoro-2-(pyrimidin-2-yl)-N-(2-{3-[6-(trifluoromethyl)pyridin-2-yl]-1H-pyrazol-1-yl}ethyl)benzamide]	7.00	7.64
CCN(CCn1ccc(-c2ccc(F)cn2)n1)C(=O)c1cc(F)ccc1-c1ncccn1 [Example 41, N-ethyl-5-fluoro-N-{2-[3-(5-fluoropyridin-2-yl)-1H-pyrazol-1-yl]ethyl}-2-(pyrimidin-2-yl)benzamide]	8.12	9.30
CCN(CCn1ccc(-c2ccc(F)cn2)n1)C(=O)c1cc(C)ccc1-c1ccccn1 [Example 35, N-ethyl-N-{2-[3-(5-fluoropyridin-2-yl)-1H-pyrazol-1-yl]ethyl}-5-methyl-2-(pyridin-2-yl)benzamide]	7.93	8.74
CCN(CCn1cc(-c2ccc(F)cc2)cn1)C(=O)c1cc(C)ccc1-n1nccn1 [Example 7, N-ethyl-N-{2-[4-(4-fluorophenyl)-1H-pyrazol-1-yl]ethyl}-5-methyl-2-(2H-1,2,3-triazol-2-yl)benzamide]	8.20	8.64
Cc1ccc(-n2nccn2)c(C(=O)N(CCF)CCn2ccc(-c3ccc(F)cn3)n2)c1 [Example 21, N-{2-[3-(5-fluoropyridin-2-yl)-1H-pyrazol-1-yl]ethyl}-5-methyl-N-(2-fluoroethyl)-2-(2H-1,2,3-triazol-2-yl)benzamide]	7.69	8.43
Cc1ccc(-n2nccn2)c(C(=O)N(CCn2ccc(-c3ccc(F)cn3)n2)C(C)C)c1 [Example 27, N-{2-[3-(5-fluoropyridin-2-yl)-1H-pyrazol-1-yl]ethyl}-5-methyl-N-(propan-2-yl)-2-(2H-1,2,3-triazol-2-yl)benzamide]	7.36	7.68
CCN(CCn1ccc(-c2ccc(F)cc2)n1)C(=O)c1cc(C)ccc1-n1nccn1 [Example 8, N-ethyl-N-{2-[3-(4-fluorophenyl)-1H-pyrazol-1-yl]ethyl}-5-methyl-2-(2H-1,2,3-triazol-2-yl)benzamide]	8.60	9.05
Cc1ccc(-n2nccn2)c(C(=O)NCCn2ccc(-c3ccc(F)cn3)n2)c1 [Example 16, N-{2-[3-(5-fluoropyridin-2-yl)-1H-pyrazol-1-yl]ethyl}-5-methyl-2-(2H-1,2,3-triazol-2-yl)benzamide]	6.22	6.94
Cc1ccc(-n2nccn2)c(C(=O)N(CCn2cc(-c3ccc(F)cn3)cn2)C2CC2)c1 [Example 13, N-cyclopropyl-N-{2-[4-(5-fluoropyridin-2-yl)-1H-pyrazol-1-yl]ethyl}-5-methyl-2-(2H-1,2,3-triazol-2-yl)benzamide]	7.81	8.01
CCN(CCn1ccc(-c2ccc(F)c(F)c2)n1)C(=O)c1cc(F)ccc1-c1ncccn1 [Example 53, N-{2-[3-(3,4-difluorophenyl)-1H-pyrazol-1-yl]ethyl}-N-ethyl-5-fluoro-2-(pyrimidin-2-yl)benzamide]	8.11	8.82
CCN(CCn1ccc(-c2ccc(F)cn2)n1)C(=O)c1ccccc1-n1nccn1 [Example 32, N-ethyl-N-{2-[3-(5-fluoropyridin-2-yl)-1H-pyrazol-1-yl]ethyl}-2-(2H-1,2,3-triazol-2-yl)benzamide]	8.18	8.05
Cc1ccc(-n2nccn2)c(C(=O)N(CCn2ccc(-c3ccc(F)cn3)n2)CC2CC2)c1 [Example 18, N-(cyclopropylmethyl)-N-{2-[3-(5-fluoropyridin-2-yl)-1H-pyrazol-1-yl]ethyl}-5-methyl-2-(2H-1,2,3-triazol-2-yl)benzamide]	8.66	8.17
CCN(CCn1ccc(-c2ccc(F)cn2)n1)C(=O)c1cc(F)ccc1-n1nccn1 [Example 24, N-ethyl-N-{2-[3-(5-fluoropyridin-2-yl)-1H-pyrazol-1-yl]ethyl}-5-fluoro-2-(2H-1,2,3-triazol-2-yl)benzamide]	7.91	8.14
CCN(CCn1cc(-c2ccc(F)cn2)cn1)C(=O)c1cc(Cl)ccc1-n1nccn1 [Example 55, 5-Chloro-N-ethyl-N-{2-[4-(5-fluoropyridin-2-yl)-1H-pyrazol-1-yl]ethyl}-2-(2H-1,2,3-triazol-2-yl)benzamide]	8.64	8.80
CCN(CCn1ccc(-c2ccc(F)cn2)n1)C(=O)c1ccc(F)cc1-n1nccn1 [Example 44, N-ethyl-4-fluoro-N-{2-[3-(5-fluoropyridin-2-yl)-1H-pyrazol-1-yl]ethyl}-2-(2H-1,2,3-triazol-2-yl)benzamide]	7.53	7.76
Cc1ccc(-n2nccn2)c(C(=O)N(CCn2ccc(-c3ccc(F)cn3)n2)C2CC2)c1 [Example 30, N-cyclopropyl-N-{2-[3-(5-fluoropyridin-2-yl)-1H-pyrazol-1-yl]ethyl}-5-methyl-2-(2H-1,2,3-triazol-2-yl)benzamide]	8.74	8.89
CCN(CCn1cc(-c2ccc(F)cn2)cn1)C(=O)c1ccccc1-c1ncccn1 [Example 37, N-ethyl-N-{2-[4-(5-fluoropyridin-2-yl)-1H-pyrazol-1-yl]ethyl}-2-(pyrimidin-2-yl)benzamide]	6.52	6.96
Cc1ccc(-n2nccn2)c(C(=O)N(C)CCn2cc(-c3ccc(F)cc3)cn2)c1 [Example 3-2, N-{2-[4-(4-fluorophenyl)-1H-pyrazol-1-yl]ethyl}-N,5-dimethyl-2-(2H-1,2,3-triazol-2-yl)benzamide]	8.15	8.66
